Laboratory results as given in patent publication US20260258084A1, “New Peptides as Selective IL-23 Receptor Antagonists” (Sanofi, priority 2022, published 2026).
Where two headings read alike, the source gives them in different places. Starred links: 1 amine or outer side, 2 acyl side, 3 side chain; linkers in the order of their positions; H or OH if unused. Positions of bridges follow the written chain, without caps; N, C: chain ends. Non-standard residues stand in square brackets, D forms with d. Residues, ends and D or L forms follow the SMILES beside them. Groups on a side chain read outwards from the residue. *: point of attachment. Trp(7-Me) = Cc1cccc2c(C[C@H](N)C(=O)O)c[nH]c12; C18 diacid = O=C(O)CCCCCCCCCCCCCCCCC(=O)*; γGlu = O=C(O)[C@H](CCC(=O)[*:2])N[*:1]; 2Nal = N[C@@H](Cc1ccc2ccccc2c1)C(=O)O; 3Pal = N[C@@H](Cc1cccnc1)C(=O)O; Suc = O=C(CCC(=O)[*:2])[*:1]; Thp = NC1(C(=O)O)CCOCC1; AEEA = NCCOCCOCC(=O)O; Me2NCH2CH2 = CN(C)CC*; Aib = CC(C)(N)C(=O)O; Ava = NCCCCC(=O)O

Columns and labels:
[1] = target: T1, human interleukin-23 receptor (recombinant human IL-23R-Fc chimera) (Homo sapiens, UniProt Q5VWK5); assay: Human ELISA IL23/IL23R (assay for specific human IL23R antagonists); type: binding; conditions: Table 10; read-out: Human ELISA IL23/IL23R IC50
T1 construct: Fc (IgG Fc fusion)
Summary of the method: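 Competition format: peptide dilutions compete for IL23R-Fc chimera (0.1 μg/ml final, 60 min, room temperature) binding to immobilized human IL23 coated at […] overnight at 4 °C. Read-out is fluorogenic HRP signal from goat anti-hu-IgG1 detecting captured receptor.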

[2] = tested on: IL-23 induced STAT3 signaling in HEK-Blue™ IL-23 cells; assay: IL-23 induced STAT3 signaling in HEK-Blue IL-23 cells (SEAP reporter); type: cell-based; conditions: human IL23 0.25 ng/ml, read-out: pSTAT3
Summary of the method: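 Secreted SEAP, read at OD 620-655 nm after 45 min QUANTI-Blue development, reports STAT3 activation. Beforehand, cells were exposed to peptide dilutions for 60 min at 37 °C and then to 0.25 ng/ml final human IL-23 overnight, at 10,000 cells/well.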

Pepsin = tested on: T2, Pepsin; assay: Protease stability in simulated gastric fluid (Pepsin-SGF, FaSSGF); type: in vitro ADME; conditions: simulated gastric fluid with pepsin (Pepsin-SGF), 60 min, 1 μM peptide, 37° C., read-out: FaSSGF 60 (min), remaining percent of peptide
T2 construct: purchased Merck Millipore
Protocol: (§1) Studies were carried out in simulated intestinal fluid (SIF) and simulated gastric fluid (SGF) to evaluate gastric stability of the peptide compounds disclosed herein.
For clarification the term “Pepsin-SGF” refers to a solution of simulated gastric fluid containing pepsin whereas “SGF media” refers to a solution of simulated gastric fluid without pepsin. Pepsin-SGF was prepared by dissolving 320 mg Pepsin (Merck Millipore) in 100 mL SGF media concentrate (ProSense).
(§2) Peptides were first dissolved at 1 mM stock concentration in 0.01 HCl (+/−10% of DMSO) and were than diluted further with water to a stock concentration of 20 μM. Final peptide concentration in the incubation was 1 μM.
(§3) To 76 μL of the Pepsin-SGF buffer, 4 μL of the 20 μM peptide stock solution was added and incubated at 37° C. At each timepoint (0, 60, 120 and 240 minutes) the reaction was quenched with addition of 80 μL Ethanol (0.1% HCOOH). The samples were centrifuged for 20 minutes and an aliquot of the supernatant 100 μL were transferred to a LoBind-MTP plate and analyzed by LCMS/MS. The peak area response was calculated at each time point for each test compound. As internal reference, the peak area response of the same test compound at TO was calculated. The percent remaining at each timepoint was calculated based on the peak area response ratio of the test compound at TO. Time 0 was set to 100%, and all later timepoints were calculated relative to time 0.

Pancreatin = assay: Protease stability in simulated intestinal fluid (Pancreatin-SIF, FaSSIF); type: in vitro ADME; conditions: 1 μM peptide, 37° C.; for remaining at 1 h, 1 µM: 60 min, read-out: FaSSIF 60 (min), remaining percent of peptide; for remaining at 2 h, 1 µM: 120 min, read-out: FaSSIF 120 (min), remaining percent of peptide; for remaining at 4 h, 1 µM: 240 min, read-out: FaSSIF 240 (min), remaining percent of peptide
Protocol: as §1
Similarly, the term “Pancreatin-SIF” refers to a solution of simulated intestinal fluid containing pancreatin whereas “SIF-media” refers to a solution of simulated intestinal fluid without pancreatin.
Pancreatin-SIF was prepared by dissolving 1 mg Pancreatin (MP Biomedicals) in 10 mL SIF media concentrate (ProSense).
as §2
as §3, with “µM” for “μM”

[3] = Solubility testing of peptides at different pH; type: physicochemical; conditions: target concentration 1 mg/ml, 2 hours agitation
Protocol: Prior to the solubility measurement of a synthesized peptide batch, its purity was determined through UPLC/MS (methods B-G).
For solubility testing the target concentration was 1 mg pure compound/ml. Therefore, solutions from solid samples were prepared in a buffer system at a concentration of 1 mg/mL compound. The solid samples were obtained by drying down aliquots of a dimethyl sulfoxide stock solution using a Thermo Speedvac vacuum centrifuge. The dry down time was 3 hours. • Solubility buffer system A) 50 mM HCl pH 1.2 • Solubility buffer system B) 50 mM phosphate buffer pH 6.5 • Solubility buffer system C) 50 mM phosphate buffer pH 7.4 • Solubility buffer system D) 50 mM phosphate buffer pH 9.0
UPLC-UV (Method A) was performed after 2 hours of gentle agitation from the filtered (0.45 μm filter plates) solutions, which was obtained by 10 mins of centrifugation forced filtration at 1500 RCF (relative centrifugal acceleration).
The solubility was determined by the comparison of the UV peak area of 2 μL-injections of a buffered sample diluted 1:5 with a standard curve of a dimethyl sulfoxide reference sample of the diluted in dimethyl sulfoxide with known concentration. The different extinction coefficients were taken into account for the calculation.

[4] = Chemical stability assessment of peptides (relative purity loss); type: physicochemical; conditions: 24 hours at 37° C.
Protocol: Purity of a peptide batch was determined through UPLC/MS (Methods B-G) prior to chemical stability measurement. The target concentration was 1 mg/ml pure compound. Solutions from solid samples were prepared in the following buffer systems with a concentration of 1 mg/ml compound based on the previously determined % purity: • Solubility buffer system A) 50 mM HCl pH 1.2+Acetonitrile (1:1) • Solubility buffer system B) 50 mM phosphate buffer pH 6.5+Acetonitrile (1:1) • Solubility buffer system C) 50 mM phosphate buffer pH 7.4+Acetonitrile (1:1)
Prepared solutions were stored for 24 hours at 2° C. and 37° C. After this time course, the samples were centrifuged for 15 min at 2500 RCF to create a 1:5 dilution of the supernatant. Then 2 μl of the dilution were analysed with UHPLC-UV.
The chemical stability was rated through the relative loss of purity calculated by the equation:
[(purity after 0 hours at 37° C.)−(purity after 24 hours at 37° C.)]/(purity after 0 hours at 37° C.)]*100%
The purity is calculated as [(peak area peptide)/(total peak area)]*100%.

IC50 [1] [nM]	remaining at 1 h, 1 µM (Pepsin) [%]	remaining at 1 h, 1 µM (Pancreatin) [%]	remaining at 2 h, 1 µM (Pancreatin) [%]	remaining at 4 h, 1 µM (Pancreatin) [%]	solubility at 2 h ([3]; 50 mM HCl buffer, 50 mM HCl pH 1.2, read-out: Solubility Buffer pH 1.2) [µg/mL]	solubility at 2 h ([3]; 50 mM phosphate buffer pH 6.5, read-out: Solubility Buffer pH 6.5) [µg/mL]	solubility at 2 h ([3]; 50 mM phosphate buffer pH 7.4, read-out: Solubility Buffer pH 7.4) [µg/mL]	solubility at 2 h ([3]; 50 mM phosphate buffer pH 9.0, read-out: Solubility Buffer pH 9.0) [µg/mL]	Chemical stability (relative purity loss) Buffer pH 1.2 ([4]; 50 mM HCl pH 1.2 + acetonitrile (1:1)) [%]	Chemical stability (relative purity loss) Buffer pH 6.5 ([4]; 50 mM phosphate buffer pH 6.5 + acetonitrile (1:1)) [%]	Chemical stability (relative purity loss) Buffer pH 7.4 ([4]; 50 mM phosphate buffer pH 7.4 + acetonitrile (1:1)) [%]	SMILES	IC50 [2] [nM]
0.59	74	71	52	45								C[C@@H](O)[C@@H]1NC(=O)[C@H](CC(N)=O)NC(=O)[C@@H]2CSSC[C@H](NC(=O)[C@H](CCC(N)=O)NC(=O)[C@H](Cc3c[nH]c4ccccc34)NC1=O)C(=O)N[C@@H](Cc1ccc(OCCN(C)C)cc1)C(=O)N[C@@H](Cc1ccc3ccccc3c1)C(=O)NC(C)(C)C(=O)N[C@H](C(=O)N[C@@H](CC(N)=O)C(=O)N[C@@H](CC(N)=O)C(N)=O)CCCCN(C)C(=O)CCC(=O)N2 [compound 25]	39.2
0.29	95	95	95	94								C[C@@H](O)[C@@H]1NC(=O)[C@H](CC(N)=O)NC(=O)[C@@H]2CSSC[C@H](NC(=O)[C@H](CCC(N)=O)NC(=O)[C@H](Cc3c[nH]c4ccccc34)NC1=O)C(=O)N[C@@H](Cc1ccc(OCCN(C)C)cc1)C(=O)N[C@@H](Cc1ccc3ccccc3c1)C(=O)NC1(CCOCC1)C(=O)N[C@H](C(=O)N[C@@H](CC(N)=O)C(=O)N[C@@H](CC(N)=O)C(N)=O)CCC(=O)NCCCCC(=O)N2 [compound 26] ([Ava]CNTWQCY(Me2NCH2CH2)[2Nal][Thp]ENN-NH2; disulfide 2-7; lactam N-11)	3.37
	92	91	92	92	≥ 1070	≥ 1030	≥ 1060	≥ 1140	10.1	1.3	1.7	CC(=O)NCCCC[C@@H]1NC(=O)[C@H](Cc2c[nH]c3c(C)cccc23)NC(=O)[C@H]([C@@H](C)O)NC(=O)[C@H](CC(N)=O)NC(=O)[C@@H]2CSSC[C@H](NC1=O)C(=O)N[C@@H](Cc1ccc(OCCN(C)C)cc1)C(=O)N[C@H](Cc1ccc3ccccc3c1)C(=O)NC1(CCOCC1)C(=O)N[C@H](C(=O)N[C@@H](CC(N)=O)C(=O)N[C@@H](Cc1cccnc1)C(=O)N(C)CC(N)=O)CCC(=O)NCCCCC(=O)N2 [compound 35]	0.34
0.31	76											Cc1cccc2c(C[C@@H]3NC(=O)[C@H]([C@@H](C)O)NC(=O)[C@H](CC(N)=O)NC(=O)[C@@H]4CSSC[C@H](NC(=O)[C@H](CCC(N)=O)NC3=O)C(=O)N[C@@H](Cc3ccc(OCCN(C)C)cc3)C(=O)N[C@@H](Cc3ccc5ccccc5c3)C(=O)NC(C)(C)C(=O)N[C@H](C(=O)N[C@@H](CC(N)=O)C(=O)N[C@@H](Cc3cccnc3)C(=O)N[C@@H](CCCCNC(=O)COCCOCCNC(=O)COCCOCCNC(=O)CC[C@H](NC(=O)CCCCCCCCCCCCCCCCC(=O)O)C(=O)O)C(N)=O)CCCCNC(=O)CCC(=O)N4)c[nH]c12 [compound 71] (CNT[Trp(7-Me)]QCY(Me2NCH2CH2)[2Nal][Aib]KN[3Pal]K([AEEA-AEEA-γGlu-C18 diacid])-NH2; disulfide 1-6; linker N-10 via Suc)	2.35
